Assay results as given in paper PMC7083837 (Nature Communications, 2020).
Values joined by “and” are separate entries in the source; they are usually repeats but may differ in a detail not shown here. Identical values can stand only once.

Legend:
SERT WT [1] = molecular target: T1, SERT WT (Homo sapiens, UniProt P31645); experiment: [3H]S-CIT competition (equilibrium) binding on COS-7 membranes;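 note: transiently transfected cell membranes incubated 1 h at room temperature with 5–10 nM [3H]S-CIT, nonspecific binding defined using 5 µM paroxetine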
T1 construct: expressed in transfected cells; host or cells: COS-7
T1 sequence (P31645 whole entry): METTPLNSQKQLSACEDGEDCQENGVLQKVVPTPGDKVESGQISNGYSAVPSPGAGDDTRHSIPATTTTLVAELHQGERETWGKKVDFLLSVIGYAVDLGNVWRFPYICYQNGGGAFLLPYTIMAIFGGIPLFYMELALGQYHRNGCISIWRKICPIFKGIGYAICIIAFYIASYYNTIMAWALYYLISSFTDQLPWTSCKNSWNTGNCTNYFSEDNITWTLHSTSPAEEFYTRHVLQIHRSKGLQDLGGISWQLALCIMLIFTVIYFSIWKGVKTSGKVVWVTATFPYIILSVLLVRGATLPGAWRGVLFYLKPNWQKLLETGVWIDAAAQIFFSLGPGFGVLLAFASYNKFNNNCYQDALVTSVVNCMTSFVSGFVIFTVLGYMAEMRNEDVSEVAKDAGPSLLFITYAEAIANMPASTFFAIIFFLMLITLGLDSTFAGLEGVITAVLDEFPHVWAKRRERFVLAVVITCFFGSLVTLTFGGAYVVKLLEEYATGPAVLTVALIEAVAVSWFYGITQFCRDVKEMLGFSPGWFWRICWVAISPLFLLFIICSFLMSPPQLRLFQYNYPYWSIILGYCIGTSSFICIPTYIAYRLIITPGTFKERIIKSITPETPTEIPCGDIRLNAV

SERT WT [2] = molecular target: T1, SERT WT; experiment: [3H]IMI dissociation rate assay (allosteric potency); format: binding;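 note: membranes of COS-7 cells transiently expressing hSERT, dissociation of prebound radioligand tracked by filtration over seven time points (5–70 min), rate constant with test ligand expressed relative to buffer-only rate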
SERT E494Q = molecular target: T2, SERT E494Q (Homo sapiens, UniProt P31645, E494Q); experiment: [3H]IMI dissociation rate assay; format: binding
T2 construct: expressed in transfected cells; host or cells: COS-7
T2 sequence (P31645 whole entry E494Q): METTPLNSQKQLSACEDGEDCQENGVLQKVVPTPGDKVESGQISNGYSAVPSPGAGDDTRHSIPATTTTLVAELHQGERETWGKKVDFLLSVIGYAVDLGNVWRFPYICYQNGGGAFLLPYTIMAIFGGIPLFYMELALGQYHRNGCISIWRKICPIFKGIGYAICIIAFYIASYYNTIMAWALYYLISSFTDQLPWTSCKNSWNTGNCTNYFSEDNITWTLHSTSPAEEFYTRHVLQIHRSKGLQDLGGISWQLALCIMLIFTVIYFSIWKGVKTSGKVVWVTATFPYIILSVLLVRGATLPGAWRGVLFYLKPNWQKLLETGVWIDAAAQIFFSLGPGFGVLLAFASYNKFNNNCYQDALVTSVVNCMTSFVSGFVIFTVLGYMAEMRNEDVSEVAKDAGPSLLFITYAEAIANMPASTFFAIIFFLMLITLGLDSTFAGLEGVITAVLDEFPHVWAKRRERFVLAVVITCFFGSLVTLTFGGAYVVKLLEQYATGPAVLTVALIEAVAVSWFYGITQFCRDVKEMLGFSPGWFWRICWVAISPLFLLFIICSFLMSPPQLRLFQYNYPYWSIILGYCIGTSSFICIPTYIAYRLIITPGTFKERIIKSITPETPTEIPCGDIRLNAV

SERT F556R = molecular target: T3, SERT F556R (Homo sapiens, UniProt P31645, F556R); experiment: [3H]5-HT uptake in intact COS-7 cells; format: cell-based; conditions: for 5-HT uptake inhibition by Lu AF60097: Fig 5A
T3 construct: expressed in transfected cells; host or cells: COS-7
T3 sequence (P31645 whole entry F556R): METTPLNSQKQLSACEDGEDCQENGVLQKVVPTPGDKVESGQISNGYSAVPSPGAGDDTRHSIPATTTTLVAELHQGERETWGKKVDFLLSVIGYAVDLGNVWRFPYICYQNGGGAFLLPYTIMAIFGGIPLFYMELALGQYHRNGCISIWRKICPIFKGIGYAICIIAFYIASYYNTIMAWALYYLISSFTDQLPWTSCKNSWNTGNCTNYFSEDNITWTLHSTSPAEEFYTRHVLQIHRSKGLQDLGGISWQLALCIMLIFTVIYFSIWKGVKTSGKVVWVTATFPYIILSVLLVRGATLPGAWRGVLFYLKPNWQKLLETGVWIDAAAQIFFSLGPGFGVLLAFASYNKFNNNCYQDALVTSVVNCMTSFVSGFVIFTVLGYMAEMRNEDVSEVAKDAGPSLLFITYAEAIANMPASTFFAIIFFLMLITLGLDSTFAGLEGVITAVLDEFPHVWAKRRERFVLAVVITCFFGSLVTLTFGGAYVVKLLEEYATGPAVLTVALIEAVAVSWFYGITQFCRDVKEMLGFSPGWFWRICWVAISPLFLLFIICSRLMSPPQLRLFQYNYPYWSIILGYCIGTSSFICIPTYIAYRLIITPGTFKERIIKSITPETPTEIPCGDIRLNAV

[3] = tested on: extracellular 5-HT levels in rat hippocampus; experiment: Microdialysis in ventral hippocampus of freely moving rats; format: in vivo; set-up: extracellular 5-HT level / AUC: unit not given here;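 for extracellular 5-HT level: percent of mean basal level in three fractions before perfusion start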

NC(=O)c1ccc2c(c1)CO[C@@]2(CCCN1CCC(c2ccc3ccc(=O)[nH]c3c2)CC1)c1ccc(F)cc1 [Lu AF60097, (S)-1-(4-fluorophenyl)-1-(3-(4-(2-oxo-1,2-dihydroquinolin-7-yl)piperidin-1-yl)propyl)-1,3-dihydroisobenzofuran-5-carboxamide]
IC50 (SERT WT [1]; COS-7 membranes, SERT WT, read-out: Inhibition of [^3H]S-CIT binding (IC50)): 270 nM
Displacement of [3H]S-CIT binding (normalized bound, Fig S6) (SERT WT [1]; log[Lu AF60097] -4.9586): 0.02221 and 0.02599
Displacement of [3H]S-CIT binding (normalized bound, Fig S6) (SERT WT [1]; log[Lu AF60097] -6.4638): 0.4362 and 0.4819 and 0.2888
Displacement of [3H]S-CIT binding (normalized bound, Fig S6) (SERT WT [1]; log[Lu AF60097] -6.7648): 0.6201 and 0.6384 and 0.4362
Displacement of [3H]S-CIT binding (normalized bound, Fig S6) (SERT WT [1]; log[Lu AF60097] -7.0658): 0.7487 and 0.8379 and 0.6201
Displacement of [3H]S-CIT binding (normalized bound, Fig S6) (SERT WT [1]; log[Lu AF60097] -7.3668): 0.8096 and 1.0297 and 0.7487
Displacement of [3H]S-CIT binding (normalized bound, Fig S6) (SERT WT [1]; log[Lu AF60097] -7.6679): 0.9347 and 1.009 and 0.8096
Displacement of [3H]S-CIT binding (normalized bound, Fig S6) (SERT WT [1]; log[Lu AF60097] -7.8213): 0.9058
Displacement of [3H]S-CIT binding (normalized bound, Fig S6) (SERT WT [1]; log[Lu AF60097] -8.2985): 0.9777 and 0.9058
Displacement of [3H]S-CIT binding (normalized bound, Fig S6) (SERT WT [1]; log[Lu AF60097] -9): 0.999 and 0.9777
Higher allosteric potency with prebound [^3H]IMI relative to prebound [^3H]S-CIT (SERT WT [2]; SERT WT): 200 fold
[^3H]IMI dissociation relative to control (source data Fig 3C) (SERT WT [2]; SERT WT, log conc -5.4318): 0.0325
[^3H]IMI dissociation relative to control (source data Fig 3C) (SERT WT [2]; SERT WT, log conc -7.3398): 0.5967 and 0.5153 and 0.3551 and 0.4862 and 0.4455
[^3H]IMI dissociation relative to control (source data Fig 3C) (SERT WT [2]; SERT WT, log conc -7.817): 0.6907 and 0.7383 and 0.5957 and 0.7538 and 0.5364
[^3H]IMI dissociation relative to control (source data Fig 3C) (SERT WT [2]; SERT WT, log conc -8.2941): 0.7767 and 0.8969 and 0.8389 and 0.8612 and 0.685
[^3H]IMI dissociation relative to control (source data Fig 3C) (SERT WT [2]; SERT WT, log conc -8.7712): 0.9679 and 0.8619
IC50 (SERT WT [2]; SERT WT, read-out: Allosteric potency inhibition of [^3H]IMI dissociation (IC50)): 31.4 nM and 31 nM
Gain in allosteric potency relative to any other reported S2-bound hSERT ligand (SERT WT [2]; comparison with ref 22): > 100 fold
Increase in allosteric potency compared with citalopram (SERT WT [2]; in the presence of S1:IMI): > 150 fold
ΔAP (mut/WT), change in allosteric potency relative to SERT WT (SERT E494Q; E494Q, [^3H]IMI dissociation): 5
IC50 (SERT E494Q; SERT E494Q, read-out: Allosteric potency inhibition of [^3H]IMI dissociation (IC50)): 170 nM
5-HT uptake inhibition by Lu AF60097 (SERT F556R; [Lu AF60097] -5.5): 0.1354
5-HT uptake inhibition by Lu AF60097 (SERT F556R; [Lu AF60097] -6): 0.2671
5-HT uptake inhibition by Lu AF60097 (SERT F556R; [Lu AF60097] -6.5): 0.5785
5-HT uptake inhibition by Lu AF60097 (SERT F556R; [Lu AF60097] -7): 0.7467
5-HT uptake inhibition by Lu AF60097 (SERT F556R; [Lu AF60097] -7.5): 0.9156
5-HT uptake inhibition by Lu AF60097 (SERT F556R; [Lu AF60097] -8): 0.9992
5-HT uptake inhibition by Lu AF60097 (SERT F556R; [Lu AF60097] -9): 0.9608
5-HT uptake inhibition by Lu AF60097 (SERT F556R; [Lu AF60097] -10): 1.013
Ki (SERT F556R; SERT F556R): 260 nM
Maximum extracellular 5-HT level, % of basal level ([3]; 1 µl (250 nM) injected in ventral hippocampus): 602 ± 156%
Hippocampal 5-HT level above saline ([3]; 1 µl of 250 nM injected locally, after 2 h): about 6 fold
extracellular 5-HT level ([3]; Fig 6A, time 0): 99.15 and 92.9 and 84.7 and 127.51 and 96.31 and 90.57
extracellular 5-HT level ([3]; Fig 6A, time -20): 99.13 and 103.53 and 109.41 and 104.22 and 103.69 and 101.06
extracellular 5-HT level ([3]; Fig 6A, time -40, single animals): 101.72 and 103.57 and 105.89 and 68.26 and 100 and 108.37
AUC ([3]; Fig 6B Inset, single animals): 160 and 33 and 22 and 96 and 107 and 114 and 155 and 78 and 140 and 79 and 75 and 81 and 29 and 143 and 77
extracellular 5-HT level ([3]; Fig 6B, Time -40, single animals): 98.41 and 131.26 and 120.63 and 87.45 and 121.36 and 138.4 and 108.61 and 82.38 and 85.26 and 67.86 and 55.86 and 116.12
